Experimental data taken from US12145947B2, “Pyrimidine based modulators and uses thereof” (Quanta Therapeutics, Inc., priority 2022, dated 2024).

Key:
KRAS G12D/RAF1 = target: T1, KRAS G12D/RAF1 (Homo sapiens, UniProt P01116, G12D); assay: Protein-protein interaction (PPI) HTRF assay KRAS G12D/RAF1; format: binding; details: Table 4
T1 construct: His6-MBP (N, cleaved yes); made in house; host or cells: E. coli
Procedure, shortened: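 HTRF pairing of His-tagged RAF1 (52-131) plus Tb-cryptate donor with GppNHp-exchanged biotin-RAS (KRAS 1-169 wt/G12D/G12V, NRAS wt) plus streptavidin-d2 acceptor; compound sits 30 min with RAS first, then 1 h RT with RAF1. IC50 derived from 665/615 ratio, untagged RAF1 defining full inhibition.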

[1] = test system: GP2D cells (KRAS G12D), phospho-ERK; assay: pERK In Cell Western (ICW) assay, GP2D cells; format: cell-based; details: Table 4, 3 hours
Protocol: pERK ICW is a high throughput screening assay to evaluate the cellular potency of mutant KRAS small molecule inhibitors. KRAS mutant cell lines AGS and GP2D (KRAS^G12D) were purchased from ATCC and maintained respectively in RPMI and DMEM medium supplemented with 10% fetal bovine serum and Penicillin/Streptomycin.
Cells grown in exponential phase were trypsinized, resuspended in fresh media, and viable cells were counted using a cell counter with Trypan Blue (BioRad TC20). Cells were seeded into 384-well plate (Greiner 781091) at density of 5,000 cells/well for AGS and 10,000 cells/well for GP2D and allowed to grow overnight in a 37° C. CO2 incubator. The next day, compounds were dispensed into wells with a ½ log, 10-point serial dilution and top concentration of […] using Tecan D300e dispenser and incubated for 3 hours in a 37° C. CO2 incubator. Cells were then fixed with paraformaldehyde (Electron Microscopy Sciences, 15710, 4% final concentration) for 30 min, permeabilized with wash buffer (1×PBS+0.1% Triton X-100) for 30 min and blocked with Odyssey blocking buffer (Li—COR 927-70001) for 1 hour, all at room temperature (RT). Phospho-ERK antibody (CST 4370L) was diluted 1:500 in Odyssey blocking+0.2% Tween 20 and incubated with cells overnight at 4° C. The next day, plates were washed 5× with wash buffer, incubated with IRDye 800 CW, Goat anti-Rabbit secondary antibody (Li—COR 926-32211, 1:500) and DRAQ5 (CST 4084L, 1:5,000) diluted in Odyssey blocking+0.2% Tween 20 for 1 hour, washed 5×, and imaged on an Odyssey CLx imaging system.
For data analysis, signal intensities from 800 (phosphor-ERK) and 700 (DRAQ5) channels were extracted, and phospho-ERK signals were normalized to DRAQ5 signals for each well and percent of DMSO control values were computed. Data were then imported into Graphpad Prism to compute half-maximal inhibitory concentrations (IC50) using a 4-parameter variable slope model. Z-factor for each plate was computed from signals derived from wells treated with either DMSO or […] of Trametinib. AGS pERK ICW (Method B) IC50 (uM) values of selected compounds are depicted in Table 2 with compounds having a value 0.001 uM to 0.01 uM as ++++; >0.01 uM to 0.1 uM as +++; >0.1 uM to 1 uM as ++; 1 uM to 10 uM as + and >10 uM as NA.

T1 sequence (P01116 with tags, fused parts or gaps isoform P01116-2 G12D): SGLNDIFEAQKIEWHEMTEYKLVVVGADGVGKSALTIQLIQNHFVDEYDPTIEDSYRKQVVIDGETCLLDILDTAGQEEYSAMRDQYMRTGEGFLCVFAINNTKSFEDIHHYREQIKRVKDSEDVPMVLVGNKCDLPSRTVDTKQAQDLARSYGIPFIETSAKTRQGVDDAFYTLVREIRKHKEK

SMILES	IC50 (KRAS G12D/RAF1) [nM]	IC50 [1] [nM]
Cc1noc(-c2cc3n(n2)CCCN(c2nc(OC[C@@]45CCCN4C[C@H](F)C5)nc(N4CC5(CCc6sc(N)c(C#N)c65)C4)c2C#N)C3)n1 [Compound 16, 2-amino-1′-[5-cyano-6-[2-(3-methyl-1,2,4-oxadiazol-5-yl)-4,6,7,8-tetrahydropyrazolo[1,5-a][1,4]diazepin-5-yl]-2-[[(2R,8S)-2-fluoro-1,2,3,5,6,7-hexahydropyrrolizin-8-yl]methoxy]pyrimidin-4-yl]spiro[5,6-dihydrocyclopenta[b]thiophene-4,3′-azetidine]-3-carbonitrile]	10000 to 100000	100 to 1000
Cc1noc(-c2nn3c(c2Cl)CN(c2nc(OC[C@@]45CCCN4C[C@H](F)C5)nc(N4CC5(CCc6sc(N)c(C#N)c65)C4)c2C#N)CCC3)n1 [Compound 17, 2-amino-1′-[6-[3-chloro-2-(3-methyl-1,2,4-oxadiazol-5-yl)-4,6,7,8-tetrahydropyrazolo[1,5-a][1,4]diazepin-5-yl]-5-cyano-2-[[(2R,8S)-2-fluoro-1,2,3,5,6,7-hexahydropyrrolizin-8-yl]methoxy]pyrimidin-4-yl]spiro[5,6-dihydrocyclopenta[b]thiophene-4,3′-azetidine]-3-carbonitrile]	1000 to 10000	10 to 100
CN(C)C(=O)c1nn2c(c1Cl)CN(c1nc(OCC34CCCN3CCC4)nc(N3CC4(CCc5sc(N)c(C#N)c54)C3)c1C#N)CCC2 [Compound 18, 5-[6-(2-amino-3-cyano-spiro[5,6-dihydrocyclopenta[b]thiophene-4,3′-azetidine]-1′-yl)-5-cyano-2-(1,2,3,5,6,7-hexahydropyrrolizin-8-ylmethoxy)pyrimidin-4-yl]-3-chloro-N,N-dimethyl-4,6,7,8-tetrahydropyrazolo[1,5-a][1,4]diazepine-2-carboxamide]	100 to 1000	10 to 100
N#Cc1c(N2CCCCCC2)nc(OC[C@@]23CCCN2C[C@H](F)C3)nc1N1CC2(CCc3sc(N)c(C#N)c32)C1 [Compound 19, 2-amino-1′-[6-(azepan-1-yl)-5-cyano-2-[[(2R)-2-fluoro-1,2,3,5,6,7-hexahydropyrrolizin-8-yl]methoxy]pyrimidin-4-yl]spiro[5,6-dihydrocyclopenta[b]thiophene-4,3′-azetidine]-3-carbonitrile]	1000 to 10000	100 to 1000
CS(=O)(=O)c1cc2n(n1)CCCN(c1nc(OC[C@@]34CCCN3C[C@H](F)C4)nc(N3CC4(CCc5sc(N)c(C#N)c54)C3)c1C#N)C2 [Compound 21, 2-amino-1′-[5-cyano-2-[[(2R,8S)-2-fluoro-1,2,3,5,6,7-hexahydropyrrolizin-8-yl]methoxy]-6-(2-methylsulfonyl-4,6,7,8-tetrahydropyrazolo[1,5-a][1,4]diazepin-5-yl)pyrimidin-4-yl]spiro[5,6-dihydrocyclopenta[b]thiophene-4,3′-azetidine]-3-carbonitrile]	1000 to 10000	10 to 100
N#Cc1c(N)sc2c1C1(CC2)CN(c2nc(OCC3(CN4CCOCC4)CC3)nc(N3C[C@H]4CC[C@@H](C3)N4)c2F)C1 [Compound 22, 2-amino-1′-[6-(3,8-diazabicyclo[3.2.1]octan-3-yl)-5-fluoro-2-[[1-(morpholinomethyl)cyclopropyl]methoxy]pyrimidin-4-yl]spiro[5,6-dihydrocyclopenta[b]thiophene-4,3′-azetidine]-3-carbonitrile]	100 to 1000	10 to 100
N#Cc1c(N2C[C@H]3CC[C@@H](C2)N3)nc(OCC2(CN3CCOCC3)CC2)nc1N1CC2(CCc3sc(N)nc32)C1 [Compound 23, 4-(2-aminospiro[5,6-dihydrocyclopenta[d]thiazole-4,3′-azetidine]-1′-yl)-2-[[1-(morpholinomethyl)cyclopropyl]methoxy]-6-[(1R,5S)-3,8-diazabicyclo[3.2.1]octan-3-yl]pyrimidine-5-carbonitrile]	1000 to 10000	10 to 100
N#Cc1cc2n(n1)CCCN(c1nc(OC[C@@]34CCCN3C[C@H](F)C4)nc(N3CC4(CCc5sc(N)c(C#N)c54)C3)c1C#N)C2 [Compound 24, 2-amino-1′-[5-cyano-6-(2-cyano-4,6,7,8-tetrahydropyrazolo[1,5-a][1,4]diazepin-5-yl)-2-[[(2R,8S)-2-fluoro-1,2,3,5,6,7-hexahydropyrrolizin-8-yl]methoxy]pyrimidin-4-yl]spiro[5,6-dihydrocyclopenta[b]thiophene-4,3′-azetidine]-3-carbonitrile]	10000 to 100000	100 to 1000
N#Cc1c(N2C[C@H]3CC[C@@H](C2)N3)nc(OC[C@@]23CCCN2C[C@H](F)C3)nc1N1CC2(CCc3sc(N)c(C#N)c32)C1 [Compound 25, 2-amino-1′-[5-cyano-6-(3,8-diazabicyclo[3.2.1]octan-3-yl)-2-[[(2R,8S)-2-fluoro-1,2,3,5,6,7-hexahydropyrrolizin-8-yl]methoxy]pyrimidin-4-yl]spiro[5,6-dihydrocyclopenta[b]thiophene-4,3′-azetidine]-3-carbonitrile]	100 to 1000	1 to 10
CN(C)CC(F)(F)COc1nc(N2C[C@H]3CC[C@@H](C2)N3)c(C#N)c(N2CC3(CCc4sc(N)c(C#N)c43)C2)n1 [Compound 26, 2-amino-1′-[5-cyano-6-(3,8-diazabicyclo[3.2.1]octan-3-yl)-2-[3-(dimethylamino)-2,2-difluoro-propoxy]pyrimidin-4-yl]spiro[5,6-dihydrocyclopenta[b]thiophene-4,3′-azetidine]-3-carbonitrile]	10000 to 100000	100 to 1000
C[C@@]1(O)CCCN(c2nc(OC[C@@]34CCCN3C[C@H](F)C4)nc(N3CC4(CCc5sc(N)c(C#N)c54)C3)c2C#N)C1 [Compound 27, 2-amino-1′-[5-cyano-2-[[(2R,8S)-2-fluoro-1,2,3,5,6,7-hexahydropyrrolizin-8-yl]methoxy]-6-[(3R)-3-hydroxy-3-methyl-1-piperidyl]pyrimidin-4-yl]spiro[5,6-dihydrocyclopenta[b]thiophene-4,3′-azetidine]-3-carbonitrile]	1000 to 10000	100 to 1000
Cn1c(-c2cc3n(n2)CCCN(c2nc(OC[C@@]45CCCN4C[C@H](F)C5)nc(N4CC5(CCc6sc(N)c(C#N)c65)C4)c2C#N)C3)nc2ccccc21 [Compound 29, 2-amino-1′-[5-cyano-6-[2-(1-methylbenzimidazol-2-yl)-4,6,7,8-tetrahydropyrazolo[1,5-a][1,4]diazepin-5-yl]-2-[[(2R,8S)-2-fluoro-1,2,3,5,6,7-hexahydropyrrolizin-8-yl]methoxy]pyrimidin-4-yl]spiro[5,6-dihydrocyclopenta[b]thiophene-4,3′-azetidine]-3-carbonitrile]	10000 to 100000	100 to 1000
Cn1c(-c2nn3c(c2Cl)CN(c2nc(OC[C@@]45CCCN4C[C@H](F)C5)nc(N4CC5(CCc6sc(N)c(C#N)c65)C4)c2C#N)CCC3)nc2ccccc21 [Compound 30]	10000 to 100000	10 to 100
Cn1c(-c2nn3c(c2Cl)CN(c2nc(OC[C@@]45CCCN4C[C@H](F)C5)nc(N4CC5(CCc6sc(N)c(C#N)c65)C4)c2C#N)CCC3)nc2c(F)cccc21 [Compound 32, 2-amino-1′-[6-[3-chloro-2-(4-fluoro-1-methyl-benzimidazol-2-yl)-4,6,7,8-tetrahydropyrazolo[1,5-a][1,4]diazepin-5-yl]-5-cyano-2-[[(2R,8S)-2-fluoro-1,2,3,5,6,7-hexahydropyrrolizin-8-yl]methoxy]pyrimidin-4-yl]spiro[5,6-dihydrocyclopenta[b]thiophene-4,3′-azetidine]-3-carbonitrile]	10000 to 100000	10 to 100
